Data as given in patent US20220184003A1, “Formulations of Cannabidiol Derivatives and Their Use as Modulators of Cannabinoid Receptor Type 2 (CB2)” (EMERALD HEALTH PHARMACEUTICALS INC, priority 2019, published 2022).
Values after ≈ are worked out from the molar mass of the structure shown. Read-outs that look alike come from different tables or passages of the source.

What was measured:
[1] = tested on: Theiler Murine Encephalomyelitis Virus-induced demyelmating disease model (TMEV); assay: TMEV model; assay type: in vivo, mice
Excerpt: 2) Theiler Murine Encephalomyelitis Virus-induced demyelmating disease model (TMEV) that mimics progressive forms of MS.

[2] = Turbidimetric aqueous solubility (estimated precipitation range); assay type: physicochemical; conditions: aqueous solubility test at 37° C.
[3] = physchem; assay type: physicochemical; conditions: for solubility at 24 h / solubility at 24 hr: thermodynamic from solid
Method: A quantitative thermodynamic solubility determination on VGE-004.8 was performed. Suspensions of VCE-004.8 were prepared in different pharmaceutical vehicles and organic solvents. The organic solvents, lipid and co-solvent vehicles consisted of pure solvent or lipid, while the cyclodextrin solutions were prepared in phosphate buffer pH 7.0. […] The concentration of VCE-004.8 in solution was determined by HPLC analysis.

[4] = Solubility of VCE-004.8 and its phytosomes in buffer medium at various pH; assay type: physicochemical; conditions: 37 °C, thermodynamic from solid
Method: The solubility of Phytosome-VCE-004.8 was tested in buffer medium at various pH (1.2, 4, 5, 6, […] and 8.0). For each pH, independent supersaturated solutions of VCE-004.8 and its phytosomes were prepared. The suspensions w ere sonicated for 10 min and kept in a water bath at 37° C. for 2 hr. Then the final suspensions were filtered (with 0.45 PTFE disposable fitter) and the solutions were injected for HPLC analysis. […] The 1:2 ratio resulted to be slightly more soluble than the 1:1 ration, and the best behavior was shown at neutral and basic pH. Accordingly. Phytosome 1:2 was selected for following assessment of PK profile in rats (Formulation n°8). Phytosome 1:2 contained 24% of VCE-004.8 and was prepared in Methyl cellulose 1% in water for oral administration.

[5] = physchem; conditions: pH 7.4
Excerpt: Lipophilicity is a key determinant of the PK behavior of drugs. It can influence distribution into tissues, absorption and the binding characteristics of a drug, as well as being an important factor in determining the solubility of a compound. Log D (distribution co-efficient) is used as a measure of lipophilicity.
The solution was transferred to tubes, centrifuged and the supernatant is drawn off the top, leaving any solid compound in the bottom. This supernatant was then syringe filtered through 0.2 μm filters to produce the initial solution. Three vials were prepared containing values. […] The vials were mixed to equilibrium, then centrifuged to ensure the two phases were fully separated before the octanol was removed and the buffer samples analyzed. For the quantitative analysis, the aqueous solutions were analyzed by LC MS/MS. The amount of VCE-004.8 in each vial was quantified against a 6 points standard curve which was produced by serially diluting the initial solution. Log D was calculated using the equation, shown in FIG. 7, wherein ConcINITlAL is a concentration of compound in the initial aqueous solution, ConcFINAL is a concentration of compound in final aqueous phase, Vaq is a volume of aqueous phase, and Voct is a volume of octanol phase.

[6] = physchem; assay type: physicochemical; conditions: oil or lipid
Method: The solubility of a compound is an important factor in determining its absorption from the gastrointestinal tract and ultimately its oral bioavailability. First it was determined the solubility of VCE-004.8 in a collection of different solvents (e.g., aqueous, lipidic, organic, etc.). Additionally, a test of stability of VCE-004.8 in selected solvents was also used as a criterion for selection of the best solvents.

[7] = tested on: TGFβ-induced Col1A2 gene transcription and collagen synthesis; assay: TGFβ-induced fibrotic responses in vitro; assay type: cell-based
[8] = Stress test of VCE-004.8 drug substance; assay type: physicochemical
Method: A stress test was performed concluding that VCE-004.8 drug substance is stable for 3 days at 65° C.+/−5° C. in glass vials. […] A short-term stability study at 40° C. was completed with indecisive results due to the early development stage of the impurity method.

[9] = Solvent shift method in SGF and SIF; assay type: physicochemical; conditions: for API concentration in solution: SIF
Method: These experiments applied to a 5 mg/mL solution of VCE-004.8 in DMSO, of which 80 μL was added to 4 mL polymer solutions prepared in simulated intestinal fluid (SIF) and simulated gastric fluid (SGF). Subsequently the samples were incubated at 25° C. under continuous stirring, and after 0.5, 1, 2 and 4 hr, an aliquot was taken, filtered and analyzed by HPLC to determine the VCE-004.8 concentration in solution. Results are presented in FIG. 11 (SGF) and FIG. 12 (SIF).

For `C=C(C)C1CCC(C)=C[C@H]1C1=C(O)C(=O)C(CCCCC)=C(NCc2ccccc2)C1=O` (stereo partly drawn) [VCE-004.8, (1′R,6′R)-3-(Benzylamine)-6-hydroxy-3′-methyl-4-pentyl-6′-(prop-1-en-2-yl)[1,1′-bi(cyclohexane)]-2′,3,6-triene-2,5-dione], which axonal disorganization ([1]; TMEV mice) is on record?
Its axonal disorganization is “prevented”.

And the “clinical severity and neuropathology” value ([1]; TMEV model, actimeter test)?
Its value is “attenuated”.

What about the “microglial reactivity and infiltration of inflammatory cells” value ([1]; TMEV-infected mice) of the same molecule?
The value was “significantly reduced”.

And the motor deficits ([1]; mice infected with Theiler's virus)?
Its motor deficits is “ameliorated”.

What about the demyelination ([1]; spinal cord of TMEV mice) of the same molecule?
Its demyelination is “significantly reduced”.

And the “number of infiltrated CD4+ T cells and immune cells” value ([1]; spinal cord of TMEV mice)?
The value was “reduced”.

What about the “Estimated Precipitation Range, Calculated Mid-range” value [2] of the same molecule?
Its value is less than 6.5 µM.

And the “Estimated Precipitation Range, Lower Bound” value [2]?
The value was less than 1 µM.

What about the “Estimated Precipitation Range, Upper Bound” value [2] of the same molecule?
The value was 6.5 µM.

What about the Solubility class [3] of the same molecule?
The Solubility class was “practically insoluble”.

And the solubility at 24 h ([3]; 25 °C, oil or lipid, Solubility)?
The solubility at 24 h was 35700 µg/mL (≈ 82300 µM).

What about the solubility at 24 h ([3]; 25 °C, oil or lipid, Solubility class (Ph. Eur.)) of the same molecule?
Its solubility at 24 h is 33000 to 100000 µg/mL (≈ 76100 to 231000 µM).

What about the solubility at 24 h ([3]; 25 °C, pH 1, simulated gastric fluid, Solubility) of the same molecule?
Its solubility at 24 h is less than 8 µg/mL.

And the solubility at 24 h ([3]; 25 °C, pH 1, simulated gastric fluid, Solubility class (Ph. Eur.))?
The solubility at 24 h was less than 100 µg/mL.

And the solubility at 24 h ([3]; 25 °C, pH 2, aqueous buffer, Solubility)?
Its solubility at 24 h is less than 8 µg/mL.

What about the solubility at 24 h ([3]; 25 °C, pH 5, aqueous buffer, Solubility) of the same molecule?
The solubility at 24 h was less than 8 µg/mL.

And the solubility at 24 h ([3]; 25 °C, pH 5, aqueous buffer, Solubility class (Ph. Eur.))?
Its solubility at 24 h is less than 100 µg/mL.

And the solubility at 24 hr ([3]; 25 °C, pH 7, aqueous buffer, Solubility)?
The solubility at 24 hr was less than 8 µg/mL.

And the solubility at 24 hr ([3]; 25 °C, pH 7, aqueous buffer, Solubility class (Ph. Eur.))?
The solubility at 24 hr was less than 100 µg/mL.

And the solubility at 24 h ([3]; 25 °C, pH 7, aqueous with cosolvent or surfactant or cyclodextrin, Solubility class (Ph. Eur.))?
Its solubility at 24 h is less than 100 µg/mL.

What about the solubility at 24 hr ([3]; 25 °C, pH 9, aqueous buffer, Solubility) of the same molecule?
The solubility at 24 hr was less than 8 µg/mL.

What about the solubility at 24 hr ([3]; 25 °C, pH 9, aqueous buffer, Solubility class (Ph. Eur.)) of the same molecule?
Its solubility at 24 hr is less than 100 µg/mL.

What about the solubility at 24 h ([3]; 37 °C, oil or lipid, Solubility) of the same molecule?
Its solubility at 24 h is 23700 µg/mL (≈ 54700 µM).

What about the “Solubility class (Ph. Eur.)” value ([3]; pH 2) of the same molecule?
The value was “Practicalty insoluble”.

And the Solubility class ([3]; pH 7)?
Its Solubility class is “practically insoluble”.

What about the solubility thermodynamic at 2 h ([4]; pH 1.2, simulated gastric fluid) of the same molecule?
The solubility thermodynamic at 2 h was 0.005 µg/mL (≈ 0.0115 µM).

And the solubility thermodynamic at 2 h ([4]; pH 4.5, aqueous buffer)?
The solubility thermodynamic at 2 h was 0.005 µg/mL (≈ 0.0115 µM).

And the solubility thermodynamic at 2 h ([4]; pH 6.8, aqueous buffer)?
The solubility thermodynamic at 2 h was 0.003 µg/mL (≈ 0.00692 µM).

What about the solubility thermodynamic at 2 h ([4]; pH 7.4, aqueous buffer) of the same molecule?
The solubility thermodynamic at 2 h was 0.001 µg/mL (≈ 0.00231 µM).

And the solubility thermodynamic at 2 h ([4]; pH 8, aqueous buffer)?
Its solubility thermodynamic at 2 h is 0.001 µg/mL (≈ 0.00231 µM).

What about the logD [5] of the same molecule?
The logD was greater than 5.

What about the solubility ([6]; 25 °C) of the same molecule?
The solubility was 17700 µg/mL (≈ 40800 µM).

And the solubility ([6]; 37 °C)?
The solubility was 34500 µg/mL (≈ 79600 µM).

And the “TGFβ-induced Col1A2 gene transcription and collagen synthesis” value [7]?
The value was “inhibited”.

What about the TGFβ-mediated myofibroblast differentiation [7] of the same molecule?
The TGFβ-mediated myofibroblast differentiation was “inhibited”.

And the wound-healing activity [7]?
Its wound-healing activity is “impaired”.

And the “stress test: stable for” value ([8]; 65° C.+/−5° C. in glass vials)?
Its value is 3 days.

And the “temperatures at which degradation of the product was observed” value ([8]; stress test)?
Its value is “above 65 °C”.

What about the “VCE-004.8 concentration in solution” value ([9]; SGF, TGPS solution, after 4 hr, 25° C.) of the same molecule?
The value was “about 0.03 mg-mL”.

And the “API concentration in solution” value ([9]; Eudragit L100, supersaturation for at least 1 hr)?
Its value is “approximately 60 μg/mL”.

And the “API concentration in solution” value ([9]; PVP K30, supersaturation for at least 1 hr)?
Its value is “approximately 60 μg/mL”.

What about the “API concentration in solution” value ([9]; all the HPMC derivates (except for HPMC as is), from 0.5 to 1 hr) of the same molecule?
Its value is “approximately 60 μg/mL”.
